Test results reported in US20220313620A1, “COMPOSITION FOR PREVENTING AND TREATING TAUOPATHIES” (SERVICIO ANDALUZ DE SALUD, priority 2019, published 2022).

Legend:
[1] = system: tau protein; assay: Hippocampal tau phosphorylation and total tau (western blot) after 10 days of oral drinking; assay type: in vivo, Wistar rats; conditions: oral by drinking 100 mg/Kg for 10 days, hippocampus
Protocol: (§1) Animal experimental procedures were carried out in accordance with the European Communities directive 2010/63/EU and Spanish legislation (Real Decreto 53/2013). The protocol was approved by the Research and approved by Ethics Committee for Animal Experiments of the University of Malaga, Spain. In accordance with the ARRIVE guidelines, all efforts were made to minimize animal suffering and to reduce the number of animals used per experimental group. Chronic drinking experiments on Wistar rats were performed on 20 male rats. All adult rats, ageing 2 months (≈300 g of body weight), were provided by Charles River Laboratories (Barcelona, Spain). The animals were housed individually under a standard 12 h light-dark cycle in a room with temperature and humidity control. Water and rat chow pellets were provided ad libitum throughout the course of the present study.
(§2) Caromax®-D-Pinitol (3-O-methyl-d-chiro-inositol, DPIN, 98% purity) and Caromax®-D-Chiro-inositol (cis-1,2,3-trans-3,5,6-cyclohexanehexol, DCI) were provided by Euronutra SL (Málaga, Spain). They were dissolved in water to orally daily administration by drinking and/or gavage at dose of 100 mg/Kg of body weight (BW) in a 1 ml/kg of BW volume to Zucker and Wistar rats for 4 weeks (28 days) and 10 days, respectively (FIG. 1). During the drinking treatments, the concentration of inositols in the water were updated considering the daily increase of BW of the rats and the possible loss of water by evaporation.
(§3) Brain extract. Frozen brain samples (17 mg per sample) were homogenized in 1 mL of cold RIPA lysis buffer (50 mM Tris-HCl pH 7.4, 150 mM NaCl, 0.5% NaDOC, 1 mM EDTA, 1% Triton, 0.1% SDS, 1 mM Na3VO4, 1 mM NaF) supplemented with a protease cocktail (Hoffmann-Roche). The suspension was incubated for 2 hours at 4° C., followed by centrifugation at 12,000 rpm for 15 minutes at 4° C. The supernatant was transferred to a new clean centrifuge tube, and Bradford colorimetric method was used to determine the concentration of the total protein. The protein extracts were diluted 1:1 in loading buffer (DTT 2X) and heated for 5 minutes at 99° C. before being subjected to electrophoresis.
(§4) Western Blot Analysis. The tissue protein (10-15 μg) was subjected to electrophoresis on 4-12% Criterion XT Precast Bis-Tris gels (Bio-Rad, USA) for 30 minutes at 80V and 2 h at 150V. […] Bands were quantified by densitometric analysis using ImageJ software (Rasband, WS, ImageJ, US National Institutes of Health, Bethesda, Md., USA). […] The results were expressed as the protein/α-Adaptin ratio or phosphorylated/total protein ratio and normalized to the control group (Y axis represents ‘fold mean of the control values’).
(§5) All data are expressed as mean±SEM. […]

[2] = system: Mitogen-activated Protein Kinase (MAPK/ERK1/2); assay: Hippocampal MAPK/ERK1/2 (western blot) after 10 days of oral drinking; assay type: in vivo, Wistar rats; conditions: oral by drinking 100 mg/Kg for 10 days, hippocampus, FIG. 10
Protocol: as §1, with “study. […]” for “study.”
as §4, with “Analysis.” for “Analysis. The tissue protein (10-15 μg) was subjected to electrophoresis on 4-12% Criterion XT Precast Bis-Tris gels (Bio-Rad, USA) for 30 minutes at 80V and 2 h at 150V.”
as §5

[3] = Plasma glucose levels after acute oral gavage; assay type: in vivo; conditions: oral 500 mg/kg, adult male Wistar rats, FIG. 3C
Protocol: Experimental procedures with animals were carried out in strict accordance with the recommendations in the European Communities directive 2010/63/EU and Spanish legislation (Real Decreto 53/2013, BOE 34/11370-11421, 2013) regulating the care and use of laboratory animals. The protocol was approved by the Ethics Committee for Animal Experiments of the University of Malaga. All studies involving animals were reported in accordance with the ARRIVE guidelines for reporting experiments involving animals (Kilkenny, C., Browne, W. J., Cuthill, I. C., Emerson, M. & Altman, D. G. Improving Bioscience Research Reporting: The ARRIVE Guidelines for Reporting Animal Research. PLoS Biol 8, e1000412, https://doi.org/10.1371/journal.pbio.1000412 (2010). All efforts were made to minimize animal suffering and to reduce the number of animals used. The experiments were performed on 4-to-5-week-old male Wistar rats (Crl:Wl; Charles River Laboratories, Barcelona, Spain). The animals were under a standard 12 h light-dark cycle in a room with temperature and humidity control. All the rats were provided with water and commercially available rat standard pellet diet (STD) (3.02 kcal/g with 30 kcal % protein, 55 kcal % carbohydrates and 15 kcal % fat) ad libitum. […]

[4] = system: glycogen synthase kinase-3β (GSK-3β); assay: Hippocampal GSK-3β phosphorylation and total level (western blot) after 10 days of oral administration; assay type: in vivo, Wistar rats; conditions: oral 100 mg/Kg for 10 days, hippocampus
Protocol: as §1, §2, §3
Western Blot Analysis. The tissue protein (10-15 μg) was subjected to electrophoresis on 4-12% Criterion XT Precast Bis-Tris gels (Bio-Rad, USA) for 30 minutes at 80V and 2 h at 150V. Proteins were transferred onto a 0.2 μm nitrocellulose membrane (Bio-Rad, USA) for 1 h at 80V by wet transfer equipment. The membrane was washed twice for 5 min in TBST (10 mM Tris-HCl, 150 mM NaCl, 0.1% Tween 20, pH 7.6) and blocked with 2% Bovine Serum Albumin-Tris Buffered Saline Tween 20 (BSA-TBST) for one hour at room temperature on a shaker platform. Subsequently, the membrane was incubated with respective primary antibodies overnight at 4° C. diluted in 2% BSA-TBST (Table 2 for additional information). The following day, the membrane was washed three times for 5 min with TBST. An appropriate HRP conjugated rabbit/mouse secondary antibody (Promega) was diluted 1:10000 in 2% BSA-TST and incubated with the membrane for 1 h shaking at room temperature. Finally, the membrane was washed as above and exposed to chemiluminescent reagent (Santa Cruz, Biotechnology Inc.) for 5 min. Stripping/reproving steps were used when necessary. Respective membrane bound protein was then visualized by Chemiluminescence (ChemiDoc Imaging System, Bio-Rad). Bands were quantified by densitometric analysis using ImageJ software (Rasband, WS, ImageJ, US National Institutes of Health, Bethesda, Md., USA). Normalization was performed using a reference protein of the same membrane, the α-Adaptin. The results were expressed as the protein/α-Adaptin ratio or phosphorylated/total protein ratio and normalized to the control group (Y axis represents ‘fold mean of the control values’).
All data are expressed as mean±SEM. Statistical analysis was undertaken for studies where each group size was of, at least, n=5. […]

With `COC1[C@@H](O)[C@@H](O)C(O)[C@H](O)[C@H]1O` (stereo partly drawn) [DPIN, (1S,2S,4S,5R)-6-methoxycyclohexane-1,2,3,4,5-pentol] the “quantity of phospho-tau (AT8: Ser202, Thr205) compared with vehicle group” value ([1]; FIG. 7A.1) was “dropped to more than half”, the “relative protein levels of total tau compared with vehicle group” value ([1]; FIG. 7A.2) was “rise” and the “kinase activation and total expression of MAPK/ERK1/2” value [2] was “No other changes”. The “glucose levels in plasma” value [3] was “maintenance”, the “GSK-3β serine-9 phosphorylation” value ([4]; FIG. 9A.1) was “no effect” and the “GSK-3β tyrosine-216 phosphorylation” value ([4]; FIG. 9A.2) was “no effect”. For the same compound, the “GSK-3β kinase activity (Ser9/Tyr216)” value ([4]; FIG. 9A.3) was “neither enhance nor inhibition”.
